ChEMBL document CHEMBL1201862, “PubChem BioAssay data set” (2004)
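Results reflect a 48-hour exposure of cells in 96-well plates to compound at five concentrations. GI50 is the concentration that inhibits growth by half.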 Active and inactive are the calls of the source. Rule as the data show it: active = GI50 up to about 1.1 µM and inactive = higher.

Key:
Assay in all cases: DTP human tumour cell line panel, 48 h
M19-MEL = test system: M19-MEL
KM-20L2 = test system: KM-20L2
DMS-273 = test system: DMS-273
DMS-114 = test system: DMS-114
SNB-78 = test system: SNB-78
DLD-1 = test system: DLD-1
HOP-18 = test system: HOP-18
XF498 = test system: XF498
RXF 631 = test system: RXF 631

| SMILES | GI50 (M19-MEL) | GI50 (KM-20L2) | GI50 (DMS-273) | GI50 (DMS-114) | GI50 (SNB-78) | GI50 (DLD-1) | GI50 (HOP-18) | GI50 (XF498) | GI50 (RXF 631) |
| --- | --- | --- | --- | --- | --- | --- | --- | --- | --- |
| COC(=O)C(CC1=C(O)Nc2ccccc2N1)/C(=N/NC(N)=O)C(=O)Nc1ccccc1C (stereo not drawn) | 60.1 µM (inactive) | > 100 µM (inactive) | 17 µM (inactive) | 12.9 µM (inactive) | > 100 µM (inactive) | 41.4 µM (inactive) | > 100 µM (inactive) |  |  |
| O=C(N/N=C(\C1=Nc2ccc(Cl)cc2NC1O)C(O)/C=C/c1ccccc1)c1ccncc1 (stereo not drawn) | > 100 µM (inactive) | > 100 µM (inactive) | > 100 µM (inactive) | > 100 µM (inactive) | > 100 µM (inactive) | > 100 µM (inactive) |  | > 100 µM (inactive) |  |
| COc1ccccc1/C=C1\CCC(CNc2ccc(Cl)cc2)C1=O (stereo not drawn) | 1.61 µM (inactive) | 0.661 µM (active) | 1.74 µM (inactive) | 4.08 µM (inactive) | 19.5 µM (inactive) | 1.31 µM (inactive) | 16.5 µM (inactive) | 27.9 µM (inactive) |  |
| CC(=O)Oc1ccccc1 [ACETIC ACID PHENYL ESTER] | > 100 µM (inactive) | > 100 µM (inactive) | > 100 µM (inactive) | > 100 µM (inactive) |  | > 100 µM (inactive) |  |  | > 100 µM (inactive) |
| O=c1c2c(-c3ccccc3)c3ccccc3nc2cnn1-c1ccccc1 | > 100 µM (inactive) | > 100 µM (inactive) | > 100 µM (inactive) | 57.1 µM (inactive) | > 100 µM (inactive) |  | > 100 µM (inactive) |  |  |
| CC(=O)Oc1cc(OC(C)=O)c2cc3c(cc2c1OC(C)=O)C(=O)C1(CCCC1)C3=O | 17.2 µM (inactive) | 22.1 µM (inactive) | 18.2 µM (inactive) | 16.5 µM (inactive) | 22.9 µM (inactive) | 20 µM (inactive) | 22.8 µM (inactive) | 16.4 µM (inactive) |  |
| COc1cc([C@@H]2c3cc4c(cc3[C@@H](NCc3cccc(F)c3)C3COC(=O)[C@@H]32)OCO4)cc(OC)c1O (stereo partly drawn) |  | 6.64 µM (inactive) | 2.21 µM (inactive) | 6.11 µM (inactive) | 15.3 µM (inactive) | 9.71 µM (inactive) | > 65 µM (inactive) |  |  |
| O=C1CCC2(c3ccccc3)Nc3ncccc3N12 (stereo not drawn) | > 100 µM (inactive) | > 100 µM (inactive) |  | > 100 µM (inactive) | > 100 µM (inactive) | > 100 µM (inactive) |  | > 100 µM (inactive) |  |
| COC(=O)C1C2CC3C(OC(=O)C31)C2OC(=O)[C@](OC)(c1ccccc1)C(F)(F)F (stereo partly drawn) | > 100 µM (inactive) | > 100 µM (inactive) | > 100 µM (inactive) | > 100 µM (inactive) | > 100 µM (inactive) | > 100 µM (inactive) |  | > 100 µM (inactive) | > 100 µM (inactive) |
| Cn1c2cccc3nnc4cccc(c4c32)n1C | > 100 µM (inactive) | > 100 µM (inactive) | > 100 µM (inactive) | > 100 µM (inactive) | > 100 µM (inactive) | > 100 µM (inactive) |  | > 100 µM (inactive) | > 100 µM (inactive) |
| Cc1cccc(C)c1NC(=O)C1=NC(=S)NC(c2ccccc2)C1c1nc2ccccc2s1 (stereo not drawn) | > 100 µM (inactive) | > 100 µM (inactive) | > 100 µM (inactive) | > 100 µM (inactive) | > 100 µM (inactive) | > 100 µM (inactive) | > 100 µM (inactive) | > 100 µM (inactive) |  |
| COc1cc(C[S+]2CCCC2)c(SC)cc1C[S+]1CCCC1 | > 100 µM (inactive) | > 100 µM (inactive) |  | > 100 µM (inactive) | > 100 µM (inactive) | > 100 µM (inactive) |  | 74.5 µM (inactive) | > 100 µM (inactive) |
| N#CCc1cccc(CC#N)c1Br |  | > 100 µM (inactive) | > 100 µM (inactive) | > 100 µM (inactive) | > 100 µM (inactive) | > 100 µM (inactive) |  | > 100 µM (inactive) |  |
| CN/C=C(\C(=O)c1ccc(OC)c(OC)c1)c1ccc(OC)cc1 | 17.1 µM (inactive) |  | 7.33 µM (inactive) | 18.6 µM (inactive) |  | 15.6 µM (inactive) | < 0.01 µM (active) | 18.5 µM (inactive) | 14.3 µM (inactive) |
